From patent US9694090B2, “Process for preparing hyperpolarized substrates and method for MRI” (priority 2010, dated 2017) come the findings set out here.

Series [1] is described as follows: Glass formation of the DNP preparation upon rapid freezing in liquid nitrogen. It counts as physicochemical. As for the experimental part:
Butyric acid (11.7 mg, 0.13 mmol) was placed into an Eppendorf tube and mixed with 9.0 mg of a glycerol solution containing 39 mM of Radical 1. This preparation was 7 M with respect to butyric acid.
Butyric anhydride (40 μl, 0.24 mmol) was added to an Eppendorf tube and mixed with 1 mg of Radical 3 in a total concentration of 15 mM. This preparation was 6.5 M with respect to butyric anhydride (which, upon hydrolysis provides a 13 M concentration in butyric acid molecules).
Butyric acetic anhydride (36 μl, 0.28 mmol) was added to an Eppendorf tube and mixed with 0.85 mg of acid form of Radical 3 in a total concentration of 15 mM. This preparation was 7.5 M with respect to butyric acetic acid.
Li-acetoacetate (22.4 mg, 0.21 mmol) was added to an Eppendorf tube and mixed with 28 μl of a DMSO preparation (25 mM Radical 3 and 0.8 mM 3-Gd). This preparation was 4 M with respect to Li-acetoacetate.
To an Eppendorf tube was added diketene (9.6 mg, 0.11 mmol) and mixed with 4.7 mg of a DMSO preparation of Radical 3 (45 mM) and 3-Gd (1.5 mM). This preparation was 8.5 M with respect to diketene.
Ethyl acetoacetate (45 μl, 0.34 mmol) was added to an Eppendorf tube and mixed with acid form of Radical 2 (0.7 mg, 0.65 μmol) in a total concentration of 15 mM. This preparation was 8 M with respect to ethyl acetoacetate.
Cis-aconitic acid (18.6 mg, 0.11 mmol) was added to an Eppendorf tube and mixed with a 32.5 μl DMSO preparation (25 mM Radical 3 and 0.8 mM 3-Gd). This preparation was 2.5 M with respect to cis-aconitic acid.
Cis-aconitic anhydride (188 mg, 1.2 mmol) was added to an Eppendorf tube and mixed with 2.85 mg (2 μmol) of Radical 1 and 0.98 mg of a 83 μmol/g solution of 3-Gd. This preparation was 9 M with respect to cis-aconitic anhydride.
Succinic acid (42.1 mg, 0.35 mmol) was added to an Eppendorf tube and mixed and mixed with 92 mg of a DMSO preparation (20 mM Radical 3 and 0.8 mM 3-Gd). This preparation was 4 M with respect to succinic acid.
Succinic anhydride (21.5 mg, 0.21 mmol) was added to an Eppendorf tube and mixed with 21.8 mg of a DMSO solution of Radical 3 (30 mM) and of 3-Gd (1 mM). This preparation was 6 M with respect to succinic anhydride.
Succinic-(1)-ethyl ester (111 mg, 0.75 mmol) was added to an Eppendorf tube and mixed with the carboxylic acid form of Radical 2 (2.4 mg, 1.5 μmol) and 3-Gd (3.4 μl of a 14.5 mM solution in water). This preparation was 6 M with respect to succinic-(1)-ethyl ester.
(§1) L-Glutamine (50.9 mg, 0.35 mmol) was added to an Eppendorf tube and dissolved in 29 μl of 12 M NaOH and mixed with 1.7 mg of radical 1 and 3-Gd (2.3 μl of a 14.5 mM water stock solution). This preparation was 4 M with respect to L-glutamine.

The nature of series [2]: Hydrolysis of the DNP hyperpolarized precursor on dissolution with strong base, followed by 13C-NMR time series. It counts as physicochemical. The procedure:
The composition from example 1b (25 mg, 0.16 mmol) was transferred from the Eppendorf tube to a sample cup and the sample cup was inserted into a DNP polariser. The composition was hyperpolarised under DNP conditions at 1.2 K in a 3.35 T magnetic field under irradiation with microwave (93.915 GHz). The sample was hyperpolarized for 75 min.
The sample was dissolved in 4 ml water with added NaOH (50 μl of 12M solution). The pH of the dissolved sample was 12. The solution was collected directly into a 10 mm NMR tube and transferred to a 14.1 T magnet where a time series of 5 degree 1D 13C-NMR spectra were recorded with a total delay between the pulses of 1 s.
The composition from example is (33 mg, 0.25 mmol) was transferred from the Eppendorf tube to a sample cup and the sample cup was inserted into a DNP polariser. The composition was hyperpolarised under DNP conditions at 1.2 K in a 3.35 T magnetic field under irradiation with microwave (93.915 GHz). The sample was hyperpolarized for 90 min.
The sample was dissolved in 5 ml water with added NaOH (125 μl of 12M). The solution was collected directly into a 10 mm NMR tube and transferred to a 14.1 […]) T magnet where a time series of 5 degree 1D 13C-NMR spectra were recorded with a total delay between the pulses of 1 s.
The entire composition from example 2b was transferred from the Eppendorf tube to a sample cup and the sample cup was inserted into a DNP polariser. The composition was hyperpolarised under DNP conditions at 1.2 K in a 3.35 T magnetic field under irradiation with microwave (93.915 GHz). The sample was hyperpolarized for 3 hours.
(§2) The sample was dissolved in 5 ml water with added NaOH (125 μl of 12 M). The solution was collected directly into a 10 mm NMR tube and transferred to a 14.1 T magnet (pH 13) where a time series of 64 five degree 1D 13C-NMR spectra were recorded with a total delay between the pulses of 3 s.
The composition from example is (20.5 mg, 0.16 mmol) was transferred from the Eppendorf tube to a sample cup and the sample cup was inserted into a DNP polariser. The composition was hyperpolarised under DNP conditions at 1.2 K in a 3.35 T magnetic field under irradiation with microwave (93.915 GHz). The sample was hyperpolarized for 2 hours.
(§3) The sample was dissolved in 5 ml water with added NaOH (200 μl of 12 M). The solution was collected directly into a 10 mm NMR tube and transferred to a 14.1 T magnet (pH 12.8) where a time series of 5 degree 1D 13C-NMR spectra were recorded with a total delay between the pulses of 3 s.
The composition from example 2b was melted on a water-bath and stirred with a magnetic stirrer. 45 mg of this preparation (0.29 mmol) was transferred from the Eppendorf tube to a sample cup and the sample cup was inserted into a DNP polariser. The composition was hyperpolarised under DNP conditions at 1.2 K in a 3.35 T magnetic field under irradiation with microwave (93.915 GHz). The sample was hyperpolarized for 90 min.
(§4) The sample was dissolved in 6 ml water with added NaOH (190 μl of 12 M). The solution was collected directly into a 10 mm NMR tube and transferred to a 14.1 T magnet (pH 12.8) where a time series of 64 five degree 1D 13C-NMR spectra were recorded with a total delay between the pulses of 3 s.

A short description of series [3]: T1 relaxation time in solution at 14.1 T. In kind it is physicochemical. Particulars: for High field liquid state T1: 14.1 T magnet, phosphate buffer, pH 7.1-7.2; for T1 of the hydrolyzed product: 14.1 T and 37° C. As for the experimental part:
The ester was only partly hydrolyzed.
The T1 of the hydrolyzed product, succinate is 33 s (14.1 T and 37° C.).
The sample was dissolved in 5 ml phosphate buffer (100 mM, pH 7) with added one equivalent HCl. The pH is 7.1 after dissolution.
The pH is 7.2 after dissolution.

Series [4] can be described thus: Degradation / isomerisation of the substrate in DNP preparation and dissolution (NMR). As for the experimental part:
The entire composition from example 2a was transferred from the Eppendorf tube to a sample cup and the sample cup was inserted into a DNP polariser. The composition was hyperpolarised under DNP conditions at 1.2 K in a 3.35 T magnetic field under irradiation with microwave (93.915 GHz). The sample was hyperpolarized for 75 min.
The sample was dissolved in 5 ml phosphate buffer pH 7.3 (40 mM+EDTA).
The solution was collected directly into a 10 mm NMR tube and transferred to a 14.1 T magnet where a 90 degree 1D 13C-NMR spectrum was recorded.
as §2, §3
The sample was dissolved in 5 ml 40 mM phosphate buffer pH 7.3+100 mg/l EDTA, thus resulting in an ester concentration of 20 mM. 1 ml of the ester solution was injected through a transfer line into a 10 mm NMR tube placed at 14.1 T and 37° C. The 10 mm NMR tube contained a 500 μl solution of approximately 270 U of a carboxylic-ester hydrolase from porcine liver. A time series of 10 degree 1D 13C-NMR spectra were recorded with a total delay between the pulses of 3 s.
The sample was dissolved in 5 ml phosphate buffer (40 mM, pH 7.3) with added 30 μl 12 M NaOH. […] The solution was collected directly into a 10 mm NMR tube and transferred to a 14.1 T magnet where a time series of 5 degree 1D 13C-NMR spectra were recorded with a total delay between the pulses of 3 s.
as §4, §1
N-acetyl-L-glutamine (57.2 mg, 0.3 mmol) was added to an Eppendorf tube and dissolved in 25.3 μl of 12 M NaOH and mixed with 1.9 mg of radical 1 and 3-Gd (2.3 μl of a 14.5 mM water stock solution).

The mark [5] stands for this setting: mixed with DMSO preparation of Radical 3.
The mark [6] stands for this setting: dissolved in 12 M NaOH with radical 1.
The mark [7] stands for this setting: with trityl radical, without addition of glass-forming agents.
[8] abbreviates: after 15 s, strong base (NaOH or NaOD), pH 11-12.2.
[9] abbreviates: after 10 s, water with added NaOH, pH 12-13.
Where [10] appears, read: after 20 s, water with added NaOH, pH 12.9-13.

On to `O=C(O)CCC(=O)O` [Succinic acid, reference compound], for which, in series [1] (setting [5]), the “Glass formation upon rapid freezing in liquid nitrogen” value was “formed a glass”.

With `N[C@@H](Cc1ccccc1)C(=O)O` [L-Phenylalanine, reference compound], the “Glass formation upon rapid freezing in liquid nitrogen” value in series [1] (setting [6]) is listed as “formed a glass”. Consider `CCCC(=O)O` [Butyric acid, reference compound], for which, in series [1] (mixed with glycerol solution of Radical 1), the “Glass formation upon rapid freezing in liquid nitrogen” value is “formed a glass”. Moreover, in series [1] (setting [7]), the “Glass formation upon rapid freezing” value was “crystallizes”.

Regarding `O=C(O)CC(O)C(=O)O` (centres unmarked) [Malic acid, reference compound], the “Glass formation upon rapid freezing in liquid nitrogen” value in series [1] (setting [5]) is “formed a glass”. For `CCOC(=O)C1CSC(=O)N1` (centres unmarked) [Ethyl OTZ, 2-Oxothiazolidine-4-carboxylic ethyl ester], the Precursor hydrolyzed entry in series [2] (in less than 10 s, water with added NaOH, pH 11-12.6) was “at least 95%”. As to `CCOC(=O)C(N)Cc1ccccc1` (centres unmarked) [Ethyl phenylalanine], in series [1] (setting [7]), the “Glass formation upon rapid freezing” value was “formed a glass”. Also, in series [2] (setting [8]), the Precursor hydrolyzed entry was “at least 95%”. In the case of `CCCC(=O)OC(=O)CCC` [Butyric anhydride], in series [1] (setting [7]), the “Glass formation upon rapid freezing” value is listed as “formed a glass”. Further, the Precursor hydrolyzed entry in series [2] (setting [9]) is “at least 95%”. As for `CCOC(=O)C(O)CC(=O)O` (centres unmarked) [Malic-(1)-ethyl ester], in series [1] (setting [7]), the “Glass formation upon rapid freezing” value is reported as “formed a glass”. Further, the Precursor hydrolyzed result in series [2] (setting [10]) is “at least 95%”. For the compound `[2H][13C]([2H])(N)C(=O)O` [2-13C-d2-Glycine, reference compound], in series [1] (setting [6]), the “Glass formation upon rapid freezing in liquid nitrogen” value was “forms a glass”. Moreover, the “High field liquid state T1” value in series [3] came out at 46 s. In the case of `O=C(O)CCC(=O)O` [succinate], in series [3], the “T1 of the hydrolyzed product” value was determined as 33 s. On to `[2H][13C]([2H])(NC(C)=O)C(=O)O` [2-13C-d2-N-acetyl glycine], for which, in series [1] (setting [6]), the “Glass formation upon rapid freezing in liquid nitrogen” value is recorded as “formed a glass”. For the same compound, in series [3], the “High field liquid state T1” value is reported as 40 s. For the compound `O=C1CCC(=O)O1` [Succinic anhydride], the “Glass formation upon rapid freezing in liquid nitrogen” value in series [1] (setting [5]) is “formed a glass”. Also, the Precursor hydrolyzed result in series [2] (setting [9]) is “at least 95%”. For the compound `O=C(O)/C=C(/CC(=O)O)C(=O)O` [Cis-aconitic acid, reference compound], the “Glass formation upon rapid freezing in liquid nitrogen” value in series [1] (setting [5]) is “formed a glass”. In addition, in series [4] (after DNP and dissolution in phosphate buffer with NaOH, pH 7.2), the “Amount of trans isomer of aconitate” value is “about 10%”. For the compound `CC(=O)CC(=O)[O-].[Li+]` [Li-acetoacetate, reference compound], in series [1] (setting [5]), the “Glass formation upon rapid freezing in liquid nitrogen” value is “formed a glass”. Moreover, in series [4] (1H NMR on DNP sample following dissolution in phosphate buffer pH 7.3), the “Amount of degradation (decarboxylation)” value was determined as 40%. `CCOC(=O)CCC(=O)O` [Succinic-(1)-ethyl ester]: the “Glass formation upon rapid freezing” value in series [1] (setting [7]) was “formed a glass”. In series [2] (setting [10]), the Precursor hydrolyzed entry is listed as “at least 95%”. As to `CCOC(=O)C(=O)CCC(=O)O` [2-oxoglutaric-(1)-ethyl ester], the “Glass formation upon rapid freezing” value in series [1] (setting [7]) is on record as “formed a glass”. The Precursor hydrolyzed entry in series [2] (setting [8]) is “at least 95%”. For the compound `O=C(O)/C=C(/CC(=O)O)C(=O)O` [cis-aconitate], the “T1 of the hydrolyzed product” value in series [3] came to 24 s. Turning to `C=C1CC(=O)O1` [diketene, 4-Methylideneoxetan-2-one], the “Glass formation upon rapid freezing in liquid nitrogen” value in series [1] (setting [5]) is “formed a glass”. Also, the Precursor hydrolyzed entry in series [2] (setting [9]) is on record as “at least 95%”. For the compound `CCCC(=O)OC(=O)OCC` [Butyric ethylcarbonic anhydride], the “Glass formation upon rapid freezing” value in series [1] (absence of a glass forming additive, Example 1d (Prophetic)) was “forms a glass”.

With `NC(=O)CC[C@H](N)C(=O)O` [L-Glutamine, reference compound], in series [1] (setting [6]), the “Glass formation upon rapid freezing in liquid nitrogen” value was “formed a glass”. In addition, the “Amount of degradation in the DNP preparation” value in series [4] (4 M) stood at 14%.

As to `O=C(O)CC1=CC(=O)OC1=O` [Cis-aconitic anhydride, cis-Aconitic anhydride], the “Glass formation upon rapid freezing” value in series [1] (setting [7]) is recorded as “formed a glass”. In series [2] (setting [9]), the Precursor hydrolyzed entry was “at least 95%”. The Presence of trans-aconitate entry in series [4] (after DNP and hydrolysis with NaOH, pH 12.8) was “neglectable”. As to `CCCC(=O)OC(C)=O` [Butyric acetic anhydride], the “Glass formation upon rapid freezing” value in series [1] (setting [7]) was “formed a glass”. Also, the Precursor hydrolyzed entry in series [2] (setting [9]) was “at least 95%”.
